US5506244A, “Cyclic amino acid derivatives” (Ciba-Geigy Corporation, priority 1994, dated 1996)
Read-outs that look alike come from different tables or passages of the source.

Tests used:
[1] = test system: Angiotensin I induced pressor response; test: inhibition of the angiotensin I induced pressor response in normotensive rats; assay type: in vivo, rat; conditions: 10 mg/Kg p.o., angiotensin I 300 ng/kg i.v.
Protocol: The in vivo test for intravenously administered compounds is performed with male, normotensive rats, which are anesthetized with sodium metofan. A femoral artery and femoral vein are cannulated respectively for direct blood pressure measurement on i.v. administration of angiotensin I and i.v. or p.o. administration of a compound of this invention. After the basal blood pressure is stabilized, pressor responses to 3 challenges of 300 ng/kg angiotensin I i.v., at 15 minute intervals, are obtained. Such pressure responses are usually again obtained at 15, 30, 60 and 90 minutes, and then every hour up to 6 hours after i.v. or p.o. administration of the compound to be tested, and compared with the initial responses. Any observed decrease of said pressor response is an indication of Angiotensin I converting enzyme inhibition.

[2] = biological target: T1, angiotensin-converting enzyme (ACE) (Oryctolagus cuniculus, UniProt P12822); test: in vitro inhibition of angiotensin-converting enzyme (ACE); assay type: biochemical
T1 sequence (P12822 34-1310): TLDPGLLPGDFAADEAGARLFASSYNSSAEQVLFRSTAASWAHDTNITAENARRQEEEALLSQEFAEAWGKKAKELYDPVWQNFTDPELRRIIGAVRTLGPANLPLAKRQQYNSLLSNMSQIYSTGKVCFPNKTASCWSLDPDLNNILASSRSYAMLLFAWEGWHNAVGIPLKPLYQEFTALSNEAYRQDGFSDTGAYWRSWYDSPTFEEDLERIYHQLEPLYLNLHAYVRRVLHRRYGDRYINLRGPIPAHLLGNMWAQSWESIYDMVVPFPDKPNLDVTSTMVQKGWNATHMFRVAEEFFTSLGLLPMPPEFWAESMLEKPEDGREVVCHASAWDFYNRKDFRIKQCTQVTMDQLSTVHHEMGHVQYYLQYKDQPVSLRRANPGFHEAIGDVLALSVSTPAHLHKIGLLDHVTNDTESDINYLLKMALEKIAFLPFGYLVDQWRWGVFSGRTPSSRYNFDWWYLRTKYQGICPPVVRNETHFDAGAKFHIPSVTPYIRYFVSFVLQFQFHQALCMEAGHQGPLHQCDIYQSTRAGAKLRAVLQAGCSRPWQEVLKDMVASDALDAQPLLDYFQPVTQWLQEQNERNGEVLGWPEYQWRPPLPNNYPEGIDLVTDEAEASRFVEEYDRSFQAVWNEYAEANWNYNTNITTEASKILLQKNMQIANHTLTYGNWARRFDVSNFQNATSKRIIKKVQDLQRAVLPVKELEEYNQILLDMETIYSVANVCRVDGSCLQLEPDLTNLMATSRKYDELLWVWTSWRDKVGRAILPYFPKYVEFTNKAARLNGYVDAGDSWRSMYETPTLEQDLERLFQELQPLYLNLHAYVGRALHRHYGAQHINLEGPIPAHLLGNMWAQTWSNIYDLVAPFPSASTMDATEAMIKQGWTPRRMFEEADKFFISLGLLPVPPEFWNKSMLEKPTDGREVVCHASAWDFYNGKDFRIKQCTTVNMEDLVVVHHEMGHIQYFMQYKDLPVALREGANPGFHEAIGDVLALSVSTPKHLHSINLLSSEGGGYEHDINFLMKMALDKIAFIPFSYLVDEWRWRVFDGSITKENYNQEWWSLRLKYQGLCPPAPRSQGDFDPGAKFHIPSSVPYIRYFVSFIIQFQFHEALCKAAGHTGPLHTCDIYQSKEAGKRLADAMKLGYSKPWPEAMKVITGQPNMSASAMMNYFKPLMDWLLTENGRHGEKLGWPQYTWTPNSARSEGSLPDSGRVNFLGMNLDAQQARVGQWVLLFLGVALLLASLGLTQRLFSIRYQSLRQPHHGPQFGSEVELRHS
Protocol: (§1) In vitro testing is most appropriate for the free carboxylic acids of the invention. The test compound is dissolved in dimethyl sulfoxide, ethanol, or 0.25 M sodium bicarbonate solution, and the solution is diluted with buffer to the desired concentration.
The buffer for the ACE assay is 300 mM NaCl, 100 mM KH2 PO4 (pH 8.3). The reaction is initiated by the addition of 100 μl of hippuryl-histidyl-leucine (2 mg/ml) to tubes containing enzyme and drug in a volume of 150 μl and tubes are incubated for 30 minutes at 37° C. The reaction is terminated by the addition of 0.75 ml 0.6 N NaOH. 100 μl of freshly prepared 0-pthaldehyde solution (2 mg/ml in methanol) is added to the tubes, the contents are mixed and allowed to stand at room temperature. After 10 minutes, 100 μl of 6 N HCl is added. The tubes are centrifuged and the supernatant optical density is read at 360 nm.

[3] = biological target: T2, neutral endopeptidase (NEP, EC 3.4.24.11) (Rattus norvegicus, UniProt P07861); test: in vitro inhibition of neutral endopeptidase (GAAP assay); assay type: biochemical; conditions: GAAP 500 μM, rat kidney cortex membranes, pH 7.4, 25° C., 10 minutes
T2 construct: rat kidney cortex membranes prepared by method of Maeda; from tissue; host or cells: rat kidney cortex membranes
T2 sequence (P07861 1-750): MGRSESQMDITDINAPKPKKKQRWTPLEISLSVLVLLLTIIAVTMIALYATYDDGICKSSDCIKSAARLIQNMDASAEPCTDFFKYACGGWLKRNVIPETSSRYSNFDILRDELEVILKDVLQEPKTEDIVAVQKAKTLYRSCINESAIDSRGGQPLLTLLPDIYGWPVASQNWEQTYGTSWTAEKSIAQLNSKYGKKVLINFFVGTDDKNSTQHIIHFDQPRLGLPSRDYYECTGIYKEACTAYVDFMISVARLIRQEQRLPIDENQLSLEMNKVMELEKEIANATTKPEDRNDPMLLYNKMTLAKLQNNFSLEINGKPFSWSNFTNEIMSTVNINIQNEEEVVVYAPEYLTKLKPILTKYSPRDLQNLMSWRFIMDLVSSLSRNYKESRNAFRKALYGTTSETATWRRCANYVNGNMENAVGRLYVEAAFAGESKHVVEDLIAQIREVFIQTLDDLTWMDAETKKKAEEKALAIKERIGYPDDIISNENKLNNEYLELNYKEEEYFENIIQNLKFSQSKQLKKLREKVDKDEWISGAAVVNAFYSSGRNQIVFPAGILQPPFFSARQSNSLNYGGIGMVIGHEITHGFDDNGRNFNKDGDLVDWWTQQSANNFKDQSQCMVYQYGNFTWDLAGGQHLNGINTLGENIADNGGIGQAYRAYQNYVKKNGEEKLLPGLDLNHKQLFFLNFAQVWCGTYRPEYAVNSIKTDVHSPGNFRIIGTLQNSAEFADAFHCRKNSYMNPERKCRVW
Protocol: as §1
The in vitro inhibition of neutral endopeptidase (NEP, EC 3.4.24.11 ) can be determined as follows:
Neutral endopeptidase 3.4.24.11 activity is determined by the hydrolysis of the substrate glutaryl-Ala-Ala-Phe-2-naphthylamide (GAAP) using a modified procedure of Orlowski and Wilk (1981). The incubation mixture (total volume 125 μl) contains 4.2 μg of protein (rat kidney cortex membranes prepared by method of Maeda et at, 1983), 50 mM iris buffer, pH 7.4 at 25° C., 500 μM substrate (final concentration), and leucine aminopeptidase M (2.5 μg). The mixture is incubated for 10 minutes at 25° C. and 100 μl of fast garnet (250 μg fast garnet/ml of 10% Tween 20 in 1 M sodium acetate, pH 4.2) is added. Enzyme activity is measured spectrophotometrically at 540 nm. One unit of NEP 24.11 activity is defined as 1 nmol of 2-naphthylamine released per minute at 25° C at pH 7.4. IC50 values are determined, i.e. the concentration of test compound required for 50% inhibition of the release of 2-naphthylamine.

Row | IC50 ([2]; hippuryl-histidyl-leucine substrate, pH 8.3, 37° C., 30 minutes, read-out: IC50 in the ACE in vitro assay) | Structure (SMILES) | duration of inhibition of the Angiotensin I induced pressor response [1] | IC50 [3] | IC50 [2]
1 | – | CCOC(=O)[C@H](Cc1ccc(O)cc1)NC(=O)C1(NC(=O)[C@@H](SC(C)=O)C(C)C)CCCC1 [1 (b), N-[[1-[(2(S)-acetylmercapto-3-methyl-1-oxobutyl)amino]-1-cyclopentyl]carbonyl]-L-tyrosine ethyl ester] | six | – | –
2 | ~7 nM | CC(C)[C@H](S)C(=O)NC1(C(=O)N[C@@H](Cc2ccc(O)cc2)C(=O)O)CCCC1 [Example 2a] | – | ~2 nM | –
3 | – | COc1ccc(C[C@H](NC(=O)C2(NC(=O)[C@@H](S)C(C)C)CCCC2)C(=O)O)cc1 [Example 2i] | – | ~2.2 nM | ~19 nM
